In patent US9289428B2, “Conveniently injectable or implantable sustained-release antioxidant formulations for therapies of ocular maladies or cancer” (RAMSCOR, INC., priority 2011, dated 2016):
Where two headings read alike, the source gives them in different places. Blank lines part the entries; values can stand above or below the molecule they belong to.

Legend:
[1] = test system: B16 melanoma tumors; experiment: Mouse B16 melanoma tumor model, single intratumoral implantation of sustained release antioxidant formulation; assay type: in vivo, C57 mouse
Excerpt: A mouse model was used to study the in vivo effect of sustained release antioxidant formulations on melanoma tumors. Mouse B16 melanoma Cell lines were obtained from NCI-Frederick, Md. C57 Mice were obtained from Simonsen Laboratories in Gilroy, Calif. Anesthesia was Ketamine/Xylazine/Acepromacine 1:1:0.03 mixture. […] cell suspension and 1×1 mm tumor pieces were preserved in 90% Fetal Bovine Serum and 10% DMSO in liquid nitrogen. Tumor was also maintained by in vivo serial subcutaneous passage.
Mice of either sex, weighing 16-18 grams, were anesthetized with the ketamine mixture. Subcutaneous implantation of the B16 suspension (100 ul of 2×10^6/ml) or solid tumor piece were performed in the back or nape of the mouse. Tumors were treated when tumor reached the average size of 6×6 mm in diameter and weighed approximately 0.6-0.8 grams in 7-10 days.
Treatment consisted of a single intratumoral implantation of semi-solid drug formulations. Each formulation consisted of 2 mg of active pharmaceutical ingredient (API): either Resveratrol, Astaxanthin, or Melatonin; in either tocopherol acetate (EA), benzyl benzoate (BB), or acetyltriethyl citrate (ATEC) excipients (all Sigma Chemical). The ratio of API and excipient was 80:20 by weight.

[2] = Concentration of active agent in the rabbit eye after injection of a sustained release formulation into the vitreous; assay type: in vivo
Procedure: A 10 μL unit dose of either formulation 1 or formulation 2 was injected into the eyes of two rabbits, and the concentration of timolol or dexamethasone (dex) remaining in the eye tested at 7 days and 14 days thereafter. A 50 μL unit dose was injected into the vitreous of two rabbit's eyes, and the concentrations of active agent detected 7 days thereafter and averaged. Timalol was detected at 8.93 μg/mL; Dex was detected at 2.82 μg/mL.
A formulation consisting of 20% timolol maleate:10% Reservatrol:70% (1:1 ATEC:EA) was prepared by mixing. A unit dose of 50 μL was injected into the vitreous of two rabbit eyes, and Reservatrol was detected at 0.64 μg/mL (average) 7 days thereafter.

Structure (SMILES): CC1=C(/C=C/C(C)=C/C=C/C(C)=C/C=C/C=C(C)/C=C/C=C(C)/C=C/C2=C(C)C(=O)[C@@H](O)CC2(C)C)C(C)(C)C[C@H](O)C1=O [astaxanthin]
time to complete clinical resolution of the tumor ([1]; after the single treatment): 5-7 weeks
time to peeling of overlying skin surface and beginning ulceration ([1]; after the single treatment): about one
tumor growth after treatment ([1]; after the single treatment): stopped growing immediately
condition and body weight of the animals ([1]; until termination of the experiment on day 90): remained active and continued to gain weight

concentration at 7 days ([2]; rabbit, in vivo): 2820 ng/mL
Structure (SMILES): C[C@@H]1C[C@H]2[C@@H]3CCC4=CC(=O)C=C[C@]4(C)[C@@]3(F)[C@@H](O)C[C@]2(C)[C@@]1(O)C(=O)CO [Dex, dexamethasone]

concentration at 7 days ([2]; rabbit, in vivo): 8930 ng/mL
Structure (SMILES): CC(C)(C)NC[C@H](O)COc1nsnc1N1CCOCC1 [Timalol, timolol]

concentration at 7 days ([2]; other: intravitreal injection, 50 μL unit dose of 20% timolol maleate:10% Reservatrol:70% (1:1 ATEC:EA) injected into vitreous of two rabbit eyes, 7 days thereafter, average, read-out: concentration of Reservatrol detected in the vitreous): 640 ng/mL
Structure (SMILES): Oc1ccc(/C=C/c2cc(O)cc(O)c2)cc1 [Reservatrol, 3,5,4′-trihydroxy-trans-stilbene]
